Results: patent publication US3955959A, “Herbicide for use in transplanted rice” (priority 1974, dated 1976)

Legend:
[1] = system: transplanted rice (ordinary and infant seedlings); experiment: Example 5 field test, rice injury; conditions: 1.5 kg/ha, 7 DAT
Procedure: (§1) In the tests described in the tables below, the herbicides were formulated and used in granular form in conventional manner. […] The commercial herbicide used was a granular product having 5% active ingredient.
(§2) In the field tests of the herbicide of this invention with transplanted rice, the rice seedlings were grown in conventional manner, by seeding the rice in a typical seedbed of sandy loam to clay soil of the country wherein the test was conducted. For laboratory and greenhouse work the seedlings were obtained by seeding rice in a mixture of soil, e.g., Ray silt loam, and peat in wood flats. For purposes of testing the herbicides on younger rice seedlings (infant or Dapog) the rice was usually allowed to grow for 6-15 days before lifting for transplanting. Older (ordinary) rice plants were usually grown for a period of about 2-3 weeks, or as much as about 7 weeks before lifting. Since the period of growth is dependent upon climatic conditions, a better measure of when to transplant the rice seedling is the leaf stage of growth; for infant or Dapog rice the seedling is lifted at the 1.5-2 leaf stage of growth, and for ordinary seedlings at the 2.5-5 leaf stage. The seedlings were then transplanted to the test plots for evaluation of the herbicide for injury against weed species present with the transplanted rice. The herbicides were then applied to the growth medium of the weeds and transplant rice, either preemergent or postemergent with respect to the weeds and postemergent with respect to the transplanted rice. Application times are designated in the tables as "DAT", meaning "days after transplant". Application rates given in the tables refer to the amount of active ingredient used.
(§3) The rice seedlings were grown to the 1.7 leaf stage for infant seedlings and to the 5.5 leaf stage for ordinary seedlings. Two days after puddling the soil in which the seedlings were to be transplanted, both infant and ordinary seedlings were transplanted into plots 8.5 m^2.
(§4) The weed symbol "Obw" represents "other broadleaf weeds" of unspecified identity. Results presented in Table 5 represent the average of 2 replications.

Echinochloa crusgalli = experiment: Example 2 field test, weed control, Chia Yi, Taiwan; type: in vivo; conditions: obs. 63 DAT
Procedure: (§7) In the field tests of the herbicide of this invention with transplanted rice, the rice seedlings were grown in conventional manner, by seeding the rice in a typical seedbed of sandy loam to clay soil of the country wherein the test was conducted. For laboratory and greenhouse work the seedlings were obtained by seeding rice in a mixture of soil, e.g., Ray silt loam, and peat in wood flats. For purposes of testing the herbicides on younger rice seedlings (infant or Dapog) the rice was usually allowed to grow for 6-15 days before lifting for transplanting. Older (ordinary) rice plants were usually grown for a period of about 2-3 weeks, or as much as about 7 weeks before lifting. Since the period of growth is dependent upon climatic conditions, a better measure of when to transplant the rice seedling is the leaf stage of growth; for infant or Dapog rice the seedling is lifted at the 1.5-2 leaf stage of growth, and for ordinary seedlings at the 2.5-5 leaf stage. The seedlings were then transplanted to the test plots for evaluation of the herbicide for injury against weed species present with the transplanted rice. The herbicides were then applied to the growth medium of the weeds and transplant rice, either preemergent or postemergent with respect to the weeds and postemergent with respect to the transplanted rice. […] Application rates given in the tables refer to the amount of active ingredient used.
(§8) Rice seedlings (ordinary) of Tainan No. 5 variety (japonica) were transplanted at 19 days of growth. Granular formulations of Herbicides A and B were applied at the 1 leaf stage of grass weed (4 DAT) and 2.5 leaf stage of grass weed (10 DAT).

[2] = system: Sedges: Cd, Ci, Fl (Cyperus difformis, Cyperus iria, Fimbristylis littoralis); experiment: Example 4 field test on ordinary rice, weed control, Munoz, Philippines; type: in vivo; conditions: obs. 36 DAT
Text: (§5) Treatments were replicated four times.

[3] = system: Grass: Ec and Ecol (Echinochloa crusgalli, Echinochloa colonum); experiment: as above; type: in vivo; conditions: obs. 36 DAT
Text: as §5

Monochoria vaginalis = experiment: Example 2 field test, weed control, Chia Yi, Taiwan; type: in vivo; conditions: obs. 63 DAT
Procedure: as §7, §8

[4] = system: Perennials Ek and Sa (Eleocharis kuroguwai, Sagittaria aginashi); experiment: Example 1 field test, perennial weed control, Iri, Korea; type: in vivo; conditions: weed weight at 63 DAT
Text: (§6) In the field test 48 day-old seedlings (Watanabe variety) were transplanted to plots 2.5 × 6 m. seeded with the weed seeds indicated in Table 1. At 5 and 10 DAT periods, the herbicides were applied to the plants (now at the 1.2 and 2.0 leaf stage, respectively, of grass weed) at the indicated rate in kilograms per hectare (kg/ha). The weed control and rice injury results for 3 replications are reported in percentages as of the indicated times of observation. The percentages given in the "Perennials" column are based on the weight of the weeds at 63 DAT, i.e., 42 gms/3.6 m^2 for the weedy check.

[5] = system: Obw (other broadleaf weeds); experiment: Example 5 field test, weed control, JAAPR, Japan; type: in vivo; conditions: 1.5 kg/ha, 7 DAT
transplanted rice = experiment: Example 1 field test, rice injury; type: in vivo, rice (Watanabe variety)
Text: as §6

[6] = system: transplanted rice (ordinary and infant seedlings); experiment: Example 5 field test, rice yield; type: in vivo; conditions: 1.5 kg/ha, 7 DAT
Procedure: as §1, §2, §3, §4

## CCCCOCN(C(=O)CCl)c1c(CC)cccc1CC [Herbicide B, n-(butoxymethyl)-2',6'-diethyl-2-chloroacetanilide, reference compound]
[1]; infant seedlings
  Injury: 10
[1]; ordinary seedlings
  Injury: 5
Echinochloa crusgalli; 4 DAT, 1.0 kg/ha
  % Weed Control (Echinochloa crusgalli): 65%
Echinochloa crusgalli; 4 DAT, 1.5 kg/ha
  % Weed Control (Echinochloa crusgalli): 92%
Echinochloa crusgalli; 4 DAT, 3.0 kg/ha
  % Weed Control (Echinochloa crusgalli): 97%
Echinochloa crusgalli; 10 DAT, 1.0 kg/ha
  % Weed Control (Echinochloa crusgalli): 77%
Echinochloa crusgalli; 10 DAT, 1.5 kg/ha
  % Weed Control (Echinochloa crusgalli): 78%
Echinochloa crusgalli; 10 DAT, 3.0 kg/ha
  % Weed Control (Echinochloa crusgalli): 98%
[2]; 5 DAT, 1.0 kg/ha
  % Weed control, Sedges (Cd, Ci, Fl): 100%
[2]; 5 DAT, 1.5 kg/ha
  % Weed control, Sedges (Cd, Ci, Fl): 100%
[2]; 5 DAT, 3.0 kg/ha
  % Weed control, Sedges (Cd, Ci, Fl): 100%
[2]; 14 DAT, 1.0 kg/ha
  % Weed control, Sedges (Cd, Ci, Fl): 0%
[2]; 14 DAT, 1.5 kg/ha
  % Weed control, Sedges (Cd, Ci, Fl): 0%
[2]; 14 DAT, 3.0 kg/ha
  % Weed control, Sedges (Cd, Ci, Fl): 50%
[3]; 5 DAT, 1.0 kg/ha
  % Weed control, Grass (Ec and Ecol): 100%
[3]; 5 DAT, 1.5 kg/ha
  % Weed control, Grass (Ec and Ecol): 100%
[3]; 5 DAT, 3.0 kg/ha
  % Weed control, Grass (Ec and Ecol): 100%
[3]; 14 DAT, 1.0 kg/ha
  % Weed control, Grass (Ec and Ecol): 0%
[3]; 14 DAT, 1.5 kg/ha
  % Weed control, Grass (Ec and Ecol): 0%
[3]; 14 DAT, 3.0 kg/ha
  % Weed control, Grass (Ec and Ecol): 50%
Monochoria vaginalis; 4 DAT, 1.0 kg/ha
  % Weed Control (Monochoria Vaginalis): 77%
Monochoria vaginalis; 4 DAT, 1.5 kg/ha
  % Weed Control (Monochoria Vaginalis): 94%
Monochoria vaginalis; 4 DAT, 3.0 kg/ha
  % Weed Control (Monochoria Vaginalis): 99%
Monochoria vaginalis; 10 DAT, 1.0 kg/ha
  % Weed Control (Monochoria Vaginalis): 65%
Monochoria vaginalis; 10 DAT, 1.5 kg/ha
  % Weed Control (Monochoria Vaginalis): 78%
Monochoria vaginalis; 10 DAT, 3.0 kg/ha
  % Weed Control (Monochoria Vaginalis): 89%
[4]; 5 DAT, 1.0 kg/ha
  % Weed Control (Perennials Ek and Sa): 0%
[4]; 5 DAT, 1.5 kg/ha
  % Weed Control (Perennials Ek and Sa): 41%
[4]; 5 DAT, 3.0 kg/ha
  % Weed Control (Perennials Ek and Sa): 0%
[4]; 10 DAT, 1.0 kg/ha
  % Weed Control (Perennials Ek and Sa): 0%
[4]; 10 DAT, 1.5 kg/ha
  % Weed Control (Perennials Ek and Sa): 0%
[4]; 10 DAT, 3.0 kg/ha
  % Weed Control (Perennials Ek and Sa): 0%
[5]
  control of Obw in words: complete control
[5]; infant seedlings
  % Weed Control (Obw): 100%
[5]; ordinary seedlings
  % Weed Control (Obw): 71%
Transplanted rice; 5 DAT, 1.0 kg/ha, obs. 21 DAT
  % Rice Injury: 0%
Transplanted rice; 5 DAT, 1.0 kg/ha, obs. 42 DAT
  % Rice Injury: 0%
Transplanted rice; 5 DAT, 1.5 kg/ha, obs. 21 DAT
  % Rice Injury: 0%
Transplanted rice; 5 DAT, 1.5 kg/ha, obs. 42 DAT
  % Rice Injury: 0%
Transplanted rice; 5 DAT, 3.0 kg/ha, obs. 21 DAT
  % Rice Injury: 5%
Transplanted rice; 5 DAT, 3.0 kg/ha, obs. 42 DAT
  % Rice Injury: 0%
Transplanted rice; 10 DAT, 1.0 kg/ha, obs. 21 DAT
  % Rice Injury: 0%
Transplanted rice; 10 DAT, 1.0 kg/ha, obs. 42 DAT
  % Rice Injury: 0%
Transplanted rice; 10 DAT, 1.5 kg/ha, obs. 21 DAT
  % Rice Injury: 0%
Transplanted rice; 10 DAT, 1.5 kg/ha, obs. 42 DAT
  % Rice Injury: 0%
Transplanted rice; 10 DAT, 3.0 kg/ha, obs. 21 DAT
  % Rice Injury: 0%
Transplanted rice; 10 DAT, 3.0 kg/ha, obs. 42 DAT
  % Rice Injury: 0%
[6]; infant seedlings
  Yield % of H.W.C.: 99%
[6]; ordinary seedlings
  Yield % of H.W.C.: 92%
